# Results: ChEMBL document CHEMBL5226282, “TLR2 Agonistic Small Molecules: Detailed Structure-Activity Relationship, Applications, and Future Prospects” (J Med Chem, 2021)
# pEC50: −log10 of the molar value.
# Columns and labels:
# Toll-like receptor 2 [1] = target: T1, Toll-like receptor 2 (Homo sapiens, UniProt O60603); experiment: Agonist activity at TLR2 (unknown origin)
# Toll-like receptor 2 [2] = target: T1, Toll-like receptor 2; experiment: Agonist activity at human TLR2 transfected in HEK293 cells; assay type: cell-based
# Toll-like receptor 2 [3] = target: T1, Toll-like receptor 2; experiment: Agonist activity at human TLR2 transfected in HEK293 cells relative to control; assay type: cell-based
# [4] = target: Toll-like receptor 2 (Mus musculus) (UniProt Q9QUN7); experiment: Agonist activity at mouse TLR2 transfected in HEK293 cells relative to control; assay type: cell-based; design: concentration or dose not given beside the values
# Toll-like receptor 2 (Mus musculus), sequence (Q9QUN7 whole entry): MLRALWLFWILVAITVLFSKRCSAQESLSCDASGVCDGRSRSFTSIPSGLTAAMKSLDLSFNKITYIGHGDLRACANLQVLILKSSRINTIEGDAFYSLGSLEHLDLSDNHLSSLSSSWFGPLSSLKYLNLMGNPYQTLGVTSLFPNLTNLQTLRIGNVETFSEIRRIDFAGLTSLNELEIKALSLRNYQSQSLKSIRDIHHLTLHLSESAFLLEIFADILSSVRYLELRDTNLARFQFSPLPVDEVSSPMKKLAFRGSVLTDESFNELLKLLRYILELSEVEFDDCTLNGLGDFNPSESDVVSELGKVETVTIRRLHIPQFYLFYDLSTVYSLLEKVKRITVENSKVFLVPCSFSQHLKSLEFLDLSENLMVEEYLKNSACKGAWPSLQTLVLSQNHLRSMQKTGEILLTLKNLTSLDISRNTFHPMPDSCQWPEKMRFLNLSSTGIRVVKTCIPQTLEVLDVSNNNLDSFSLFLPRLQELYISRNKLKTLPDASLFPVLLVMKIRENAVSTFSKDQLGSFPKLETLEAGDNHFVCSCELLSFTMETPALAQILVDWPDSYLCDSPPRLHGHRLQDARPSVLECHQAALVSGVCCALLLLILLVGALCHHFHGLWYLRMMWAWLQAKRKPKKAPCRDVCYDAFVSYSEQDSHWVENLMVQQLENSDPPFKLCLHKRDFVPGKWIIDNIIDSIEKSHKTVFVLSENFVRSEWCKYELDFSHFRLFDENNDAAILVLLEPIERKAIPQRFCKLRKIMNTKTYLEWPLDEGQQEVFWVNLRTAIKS
# T1 sequence (O60603 whole entry): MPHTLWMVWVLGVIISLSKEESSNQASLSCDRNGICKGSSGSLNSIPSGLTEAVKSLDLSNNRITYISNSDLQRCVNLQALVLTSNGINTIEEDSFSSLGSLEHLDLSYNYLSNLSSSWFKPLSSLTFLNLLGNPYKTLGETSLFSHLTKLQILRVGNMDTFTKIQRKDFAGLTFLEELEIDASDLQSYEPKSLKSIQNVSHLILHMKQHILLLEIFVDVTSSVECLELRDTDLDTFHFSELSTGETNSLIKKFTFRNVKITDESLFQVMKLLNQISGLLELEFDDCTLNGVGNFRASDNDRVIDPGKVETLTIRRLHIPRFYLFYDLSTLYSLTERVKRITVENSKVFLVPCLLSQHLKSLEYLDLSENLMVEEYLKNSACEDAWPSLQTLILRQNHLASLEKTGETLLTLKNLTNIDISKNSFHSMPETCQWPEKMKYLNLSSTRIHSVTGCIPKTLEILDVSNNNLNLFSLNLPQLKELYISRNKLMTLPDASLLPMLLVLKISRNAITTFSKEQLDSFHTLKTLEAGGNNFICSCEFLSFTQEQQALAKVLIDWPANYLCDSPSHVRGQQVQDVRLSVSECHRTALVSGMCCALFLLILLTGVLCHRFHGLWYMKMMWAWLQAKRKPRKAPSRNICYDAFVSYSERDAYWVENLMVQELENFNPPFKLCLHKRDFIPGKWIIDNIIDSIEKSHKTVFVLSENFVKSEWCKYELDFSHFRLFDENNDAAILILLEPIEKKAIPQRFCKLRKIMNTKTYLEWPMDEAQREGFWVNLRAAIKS
SMILES,pEC50 (Toll-like receptor 2 [1]),pEC50 (Toll-like receptor 2 [2]),pEC50 (Toll-like receptor 2 [3]),also measured
CCCCCCCCCCCCCCCC(=O)OCC[C@@H](CS[C@H](N)C(=O)N[C@@H](CO)C(=O)N[C@@H](CCCCN)C(=O)N[C@@H](CCCCN)C(=O)N[C@@H](CCCCN)C(=O)N[C@@H](CCCCN)C(=O)N[C@@H](CO)C(=O)N[C@@H](CC(C)C)C(=O)N[C@@H](CC(C)C)C(=O)N[C@@H](CCSC)C(=O)N[C@@H](Cc1c[nH]c2ccccc12)C(=O)N[C@H](C(=O)N[C@H](C(=O)N[C@@H](CCC(N)=O)C(=O)N[C@H](C(=O)O)C(C)C)[C@@H](C)O)[C@@H](C)CC)OC(=O)CCCCCCCCCCCCCCC,4.34,,,
CCCCCCCCCCCCCCCC(=O)OC[C@H](CS[C@H](N)C(=O)N[C@@H](CO)C(=O)N[C@@H](CCCCN)C(=O)N[C@@H](CCCCN)C(=O)N[C@@H](CCCCN)C(=O)N[C@@H](CCCCN)C(=O)N[C@@H](CO)C(=O)N[C@@H](CC(C)C)C(=O)N[C@@H](CC(C)C)C(=O)N[C@@H](CCSC)C(=O)N[C@@H](Cc1c[nH]c2ccccc12)C(=O)N[C@H](C(=O)N[C@H](C(=O)N[C@@H](CCC(N)=O)C(=O)N[C@H](C(=O)O)C(C)C)[C@@H](C)O)[C@@H](C)CC)OC(=O)CCCCCCCCCCCCCCC,6.33,,,
CCCCCCCCCCCCCCCC(=O)N[C@@H](SC[C@@H](COC(=O)CCCCCCCCCCCCCCC)OC(=O)CCCCCCCCCCCCCCC)C(=O)N[C@@H](CO)C(=O)N[C@@H](CCCCN)C(=O)N[C@@H](CCCCN)C(=O)N[C@@H](CCCCN)C(=O)N[C@@H](CCCCN)C(=O)N[C@@H](CO)C(=O)N[C@@H](CC(C)C)C(=O)N[C@@H](CC(C)C)C(=O)N[C@@H](CCSC)C(=O)N[C@@H](Cc1c[nH]c2ccccc12)C(=O)N[C@H](C(=O)N[C@H](C(=O)N[C@@H](CCC(N)=O)C(=O)N[C@H](C(=O)O)C(C)C)[C@@H](C)O)[C@@H](C)CC,4.64,,,
CCCCCCCCCCCCCCCC(=O)N[C@H](CSC[C@@H](COC(=O)CCCCCCCCCCC)OC(=O)CCCCCCCCCCC)C(=O)NCCOCCOCCOCCP(=O)(O)O,,< 4.00,< 4.00,
CCCCCCCCCCCCCCCCOC[C@H](CSC[C@@H](N)C(=O)NCCOCCOCCOCCP(=O)(O)O)OCCCCCCCCCCCCCCCC,,5.46,5.46,
CCCCCCCCCCCCCCCC(=O)OCC[C@H](CS[C@H](N)C(=O)N[C@@H](CO)C(=O)N[C@@H](CCCCN)C(=O)N[C@@H](CCCCN)C(=O)N[C@@H](CCCCN)C(=O)N[C@@H](CCCCN)C(=O)N[C@@H](CO)C(=O)N[C@@H](CC(C)C)C(=O)N[C@@H](CC(C)C)C(=O)N[C@@H](CCSC)C(=O)N[C@@H](Cc1c[nH]c2ccccc12)C(=O)N[C@H](C(=O)N[C@H](C(=O)N[C@@H](CCC(N)=O)C(=O)N[C@H](C(=O)O)C(C)C)[C@@H](C)O)[C@@H](C)CC)OC(=O)CCCCCCCCCCCCCCC,6.22,,,
CCCCCCCCCCCCCCCC(=O)OCCCCC[C@H](CS[C@H](N)C(=O)N[C@@H](CO)C(=O)N[C@@H](CCCCN)C(=O)N[C@@H](CCCCN)C(=O)N[C@@H](CCCCN)C(=O)N[C@@H](CCCCN)C(=O)N[C@@H](CO)C(=O)N[C@@H](CC(C)C)C(=O)N[C@@H](CC(C)C)C(=O)N[C@@H](CCSC)C(=O)N[C@@H](Cc1c[nH]c2ccccc12)C(=O)N[C@H](C(=O)N[C@H](C(=O)N[C@@H](CCC(N)=O)C(=O)N[C@H](C(=O)O)C(C)C)[C@@H](C)O)[C@@H](C)CC)OC(=O)CCCCCCCCCCCCCCC,5.35,,,
CCCCCCCCCCCCCC(=O)N[C@H](CSCC(COC(=O)CCCCC)OC(=O)CCCCC)C(=O)N[C@@H](CO)C(=O)N[C@@H](CCCCN)C(=O)N[C@@H](CCCCN)C(=O)N[C@@H](CCCCN)C(=O)N[C@@H](CCCCN)C(=O)O (stereo not given in full),,,,Activity [4]: 0%
CCCCCCCCCCCCCCCC(=O)N[C@H](CSCC(COC(=O)CCCCC)OC(=O)CCCCC)C(=O)N[C@@H](CO)C(=O)N[C@@H](CCCCN)C(=O)N[C@@H](CCCCN)C(=O)N[C@@H](CCCCN)C(=O)N[C@@H](CCCCN)C(=O)O (stereo not given in full),,,,Activity [4]: 0%
CCCCCC(=O)N[C@H](CSCC(COC(=O)CC)OC(=O)CC)C(=O)N[C@@H](CO)C(=O)N[C@@H](CCCCN)C(=O)N[C@@H](CCCCN)C(=O)N[C@@H](CCCCN)C(=O)N[C@@H](CCCCN)C(=O)O (stereo not given in full),,,,Activity [4]: 11%
CCCCCCCCCCCCCCCC(=O)OCC[C@@H](CS[C@H](NC(C)=O)C(=O)N[C@@H](CO)C(=O)N[C@@H](CCCCN)C(=O)N[C@@H](CCCCN)C(=O)N[C@@H](CCCCN)C(=O)N[C@@H](CCCCN)C(=O)N[C@@H](CO)C(=O)N[C@@H](CC(C)C)C(=O)N[C@@H](CC(C)C)C(=O)N[C@@H](CCSC)C(=O)N[C@@H](Cc1c[nH]c2ccccc12)C(=O)N[C@H](C(=O)N[C@H](C(=O)N[C@@H](CCC(N)=O)C(=O)N[C@H](C(=O)O)C(C)C)[C@@H](C)O)[C@@H](C)CC)OC(=O)CCCCCCCCCCCCCCC,4.76,,,
CCCCCCCCCCCCCCCC(=O)OCCCC[C@H](CS[C@H](N)C(=O)N[C@@H](CO)C(=O)N[C@@H](CCCCN)C(=O)N[C@@H](CCCCN)C(=O)N[C@@H](CCCCN)C(=O)N[C@@H](CCCCN)C(=O)N[C@@H](CO)C(=O)N[C@@H](CC(C)C)C(=O)N[C@@H](CC(C)C)C(=O)N[C@@H](CCSC)C(=O)N[C@@H](Cc1c[nH]c2ccccc12)C(=O)N[C@H](C(=O)N[C@H](C(=O)N[C@@H](CCC(N)=O)C(=O)N[C@H](C(=O)O)C(C)C)[C@@H](C)O)[C@@H](C)CC)OC(=O)CCCCCCCCCCCCCCC,6.52,,,

# Now from value to compound, other results behind:
pEC50 (Toll-like receptor 2 [1]),pEC50 (Toll-like receptor 2 [2]),pEC50 (Toll-like receptor 2 [3]),SMILES,also measured
,6.09,6.09,CCCCCCCCCCNC(=O)OC[C@H](CSC[C@@H](N)C(=O)NCCOCCOCCOCCP(=O)(O)O)OC(=O)NCCCCCCCCCC,
,6.26,6.26,CCCCCCCCCCCCOC[C@H](CSC[C@@H](N)C(=O)NCCOCCOCCOCCP(=O)(O)O)OCCCCCCCCCCCC,
,5.15,5.15,CCCCCCCCNC(=O)OC[C@H](CSC[C@@H](N)C(=O)NCCOCCOCCOCCP(=O)(O)O)OC(=O)NCCCCCCCC,
6.42,,,CCCCCCCCCCCCCCCC(=O)OCCC[C@H](CS[C@H](N)C(=O)N[C@@H](CO)C(=O)N[C@@H](CCCCN)C(=O)N[C@@H](CCCCN)C(=O)N[C@@H](CCCCN)C(=O)N[C@@H](CCCCN)C(=O)N[C@@H](CO)C(=O)N[C@@H](CC(C)C)C(=O)N[C@@H](CC(C)C)C(=O)N[C@@H](CCSC)C(=O)N[C@@H](Cc1c[nH]c2ccccc12)C(=O)N[C@H](C(=O)N[C@H](C(=O)N[C@@H](CCC(N)=O)C(=O)N[C@H](C(=O)O)C(C)C)[C@@H](C)O)[C@@H](C)CC)OC(=O)CCCCCCCCCCCCCCC,
6.55,,,CCCCCCCCCCCCCCCC(=O)OC[C@H](CS[C@H](NC(C)=O)C(=O)N[C@@H](CO)C(=O)N[C@@H](CCCCN)C(=O)N[C@@H](CCCCN)C(=O)N[C@@H](CCCCN)C(=O)N[C@@H](CCCCN)C(=O)N[C@@H](CO)C(=O)N[C@@H](CC(C)C)C(=O)N[C@@H](CC(C)C)C(=O)N[C@@H](CCSC)C(=O)N[C@@H](Cc1c[nH]c2ccccc12)C(=O)N[C@H](C(=O)N[C@H](C(=O)N[C@@H](CCC(N)=O)C(=O)N[C@H](C(=O)O)C(C)C)[C@@H](C)O)[C@@H](C)CC)OC(=O)CCCCCCCCCCCCCCC,
,5.52,5.52,CCCCCCCC(=O)OC[C@H](CSC[C@@H](N)C(=O)NCCOCCOCCOCCP(=O)(O)O)OC(=O)CCCCCCC,
5.93,,,CCCCCCCCCCCCCCCC(=O)OCC[C@H](CS[C@H](NC(C)=O)C(=O)N[C@@H](CO)C(=O)N[C@@H](CCCCN)C(=O)N[C@@H](CCCCN)C(=O)N[C@@H](CCCCN)C(=O)N[C@@H](CCCCN)C(=O)N[C@@H](CO)C(=O)N[C@@H](CC(C)C)C(=O)N[C@@H](CC(C)C)C(=O)N[C@@H](CCSC)C(=O)N[C@@H](Cc1c[nH]c2ccccc12)C(=O)N[C@H](C(=O)N[C@H](C(=O)N[C@@H](CCC(N)=O)C(=O)N[C@H](C(=O)O)C(C)C)[C@@H](C)O)[C@@H](C)CC)OC(=O)CCCCCCCCCCCCCCC,
